In ChEMBL document CHEMBL5325488, “Discovery of SMD-3040 as a Potent and Selective SMARCA2 PROTAC Degrader with Strong in vivo Antitumor Activity” (J Med Chem, 2023):
Each block holds one molecule with its values, some of them ahead of it.

How the values were obtained:
[1] = target: T1, von Hippel-Lindau disease tumor suppressor/SWI/SNF-related matrix-associated actin-dependent regulator of chromatin subfamily A member 4 (Homo sapiens, UniProt P51532+P40337); experiment: PROTAC activity at VHL/SMARCA4 in human MV4-11 cells assessed as induction of […] degradation by measuring maximal efficacy incubated for 18 hrs by Western blotting analysis relative to control; assay type: cell-based
Target sequence in this assay (P40337 whole entry, looked up): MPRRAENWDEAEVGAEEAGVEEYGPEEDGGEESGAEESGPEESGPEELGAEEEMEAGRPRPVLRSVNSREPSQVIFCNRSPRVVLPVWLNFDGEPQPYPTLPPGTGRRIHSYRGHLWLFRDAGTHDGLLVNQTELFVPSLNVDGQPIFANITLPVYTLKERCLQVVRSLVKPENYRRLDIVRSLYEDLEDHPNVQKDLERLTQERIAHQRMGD
Target sequence in this assay (P51532 whole entry, looked up): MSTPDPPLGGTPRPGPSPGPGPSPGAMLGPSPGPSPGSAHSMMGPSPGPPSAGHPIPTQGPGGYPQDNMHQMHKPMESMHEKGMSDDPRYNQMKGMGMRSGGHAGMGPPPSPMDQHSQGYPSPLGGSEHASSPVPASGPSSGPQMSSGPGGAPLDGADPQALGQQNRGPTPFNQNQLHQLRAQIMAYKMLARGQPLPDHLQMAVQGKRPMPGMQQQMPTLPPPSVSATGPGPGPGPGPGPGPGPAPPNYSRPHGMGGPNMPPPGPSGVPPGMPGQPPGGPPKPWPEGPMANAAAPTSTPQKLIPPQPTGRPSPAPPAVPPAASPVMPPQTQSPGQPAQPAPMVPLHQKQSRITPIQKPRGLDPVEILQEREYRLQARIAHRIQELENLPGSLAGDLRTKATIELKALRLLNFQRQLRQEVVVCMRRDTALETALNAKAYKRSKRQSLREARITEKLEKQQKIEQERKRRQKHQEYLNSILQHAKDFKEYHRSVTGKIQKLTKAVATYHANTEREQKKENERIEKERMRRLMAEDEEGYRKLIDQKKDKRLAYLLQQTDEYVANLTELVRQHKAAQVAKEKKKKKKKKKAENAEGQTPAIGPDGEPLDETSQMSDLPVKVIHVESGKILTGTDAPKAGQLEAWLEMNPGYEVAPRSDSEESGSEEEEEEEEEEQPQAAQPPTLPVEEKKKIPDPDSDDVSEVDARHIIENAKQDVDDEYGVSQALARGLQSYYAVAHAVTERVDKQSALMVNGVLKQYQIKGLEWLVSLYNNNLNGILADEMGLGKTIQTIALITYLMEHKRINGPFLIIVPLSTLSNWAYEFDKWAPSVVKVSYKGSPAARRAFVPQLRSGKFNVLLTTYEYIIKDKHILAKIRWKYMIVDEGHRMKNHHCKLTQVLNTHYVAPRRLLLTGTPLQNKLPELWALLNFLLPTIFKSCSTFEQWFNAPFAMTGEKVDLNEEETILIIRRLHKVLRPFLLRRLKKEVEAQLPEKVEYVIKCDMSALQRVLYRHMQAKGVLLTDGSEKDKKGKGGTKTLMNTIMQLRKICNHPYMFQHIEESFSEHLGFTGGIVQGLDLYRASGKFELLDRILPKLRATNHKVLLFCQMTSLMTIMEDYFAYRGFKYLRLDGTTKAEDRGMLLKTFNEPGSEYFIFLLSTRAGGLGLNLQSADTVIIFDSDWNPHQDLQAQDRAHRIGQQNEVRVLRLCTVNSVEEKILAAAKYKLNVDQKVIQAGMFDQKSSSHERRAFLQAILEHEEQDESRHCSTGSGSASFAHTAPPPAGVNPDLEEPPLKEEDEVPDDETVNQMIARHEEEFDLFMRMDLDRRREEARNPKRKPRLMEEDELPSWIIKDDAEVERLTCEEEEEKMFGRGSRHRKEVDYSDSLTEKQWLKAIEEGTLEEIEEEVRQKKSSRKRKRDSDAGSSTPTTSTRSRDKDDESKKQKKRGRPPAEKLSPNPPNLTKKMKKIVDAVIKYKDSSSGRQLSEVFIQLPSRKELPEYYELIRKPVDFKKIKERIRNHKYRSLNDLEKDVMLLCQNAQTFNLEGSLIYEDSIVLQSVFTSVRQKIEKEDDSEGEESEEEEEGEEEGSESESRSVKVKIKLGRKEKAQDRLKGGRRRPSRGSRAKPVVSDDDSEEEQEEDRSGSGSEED

[2] = target: T2, von Hippel-Lindau disease tumor suppressor/SWI/SNF-related matrix-associated actin-dependent regulator of chromatin subfamily A member 2 (Homo sapiens, UniProt P51531+P40337); experiment: PROTAC activity at VHL/SMARCA2 in human MV4-11 cells assessed as induction of SMARCA2 degradation by measuring maximal efficacy incubated for 18 hrs by Western blotting analysis relative to control; assay type: cell-based
Target sequence in this assay (P40337 whole entry, looked up): as the sequence (P40337 whole entry, looked up) above
Target sequence in this assay (P51531 whole entry, looked up): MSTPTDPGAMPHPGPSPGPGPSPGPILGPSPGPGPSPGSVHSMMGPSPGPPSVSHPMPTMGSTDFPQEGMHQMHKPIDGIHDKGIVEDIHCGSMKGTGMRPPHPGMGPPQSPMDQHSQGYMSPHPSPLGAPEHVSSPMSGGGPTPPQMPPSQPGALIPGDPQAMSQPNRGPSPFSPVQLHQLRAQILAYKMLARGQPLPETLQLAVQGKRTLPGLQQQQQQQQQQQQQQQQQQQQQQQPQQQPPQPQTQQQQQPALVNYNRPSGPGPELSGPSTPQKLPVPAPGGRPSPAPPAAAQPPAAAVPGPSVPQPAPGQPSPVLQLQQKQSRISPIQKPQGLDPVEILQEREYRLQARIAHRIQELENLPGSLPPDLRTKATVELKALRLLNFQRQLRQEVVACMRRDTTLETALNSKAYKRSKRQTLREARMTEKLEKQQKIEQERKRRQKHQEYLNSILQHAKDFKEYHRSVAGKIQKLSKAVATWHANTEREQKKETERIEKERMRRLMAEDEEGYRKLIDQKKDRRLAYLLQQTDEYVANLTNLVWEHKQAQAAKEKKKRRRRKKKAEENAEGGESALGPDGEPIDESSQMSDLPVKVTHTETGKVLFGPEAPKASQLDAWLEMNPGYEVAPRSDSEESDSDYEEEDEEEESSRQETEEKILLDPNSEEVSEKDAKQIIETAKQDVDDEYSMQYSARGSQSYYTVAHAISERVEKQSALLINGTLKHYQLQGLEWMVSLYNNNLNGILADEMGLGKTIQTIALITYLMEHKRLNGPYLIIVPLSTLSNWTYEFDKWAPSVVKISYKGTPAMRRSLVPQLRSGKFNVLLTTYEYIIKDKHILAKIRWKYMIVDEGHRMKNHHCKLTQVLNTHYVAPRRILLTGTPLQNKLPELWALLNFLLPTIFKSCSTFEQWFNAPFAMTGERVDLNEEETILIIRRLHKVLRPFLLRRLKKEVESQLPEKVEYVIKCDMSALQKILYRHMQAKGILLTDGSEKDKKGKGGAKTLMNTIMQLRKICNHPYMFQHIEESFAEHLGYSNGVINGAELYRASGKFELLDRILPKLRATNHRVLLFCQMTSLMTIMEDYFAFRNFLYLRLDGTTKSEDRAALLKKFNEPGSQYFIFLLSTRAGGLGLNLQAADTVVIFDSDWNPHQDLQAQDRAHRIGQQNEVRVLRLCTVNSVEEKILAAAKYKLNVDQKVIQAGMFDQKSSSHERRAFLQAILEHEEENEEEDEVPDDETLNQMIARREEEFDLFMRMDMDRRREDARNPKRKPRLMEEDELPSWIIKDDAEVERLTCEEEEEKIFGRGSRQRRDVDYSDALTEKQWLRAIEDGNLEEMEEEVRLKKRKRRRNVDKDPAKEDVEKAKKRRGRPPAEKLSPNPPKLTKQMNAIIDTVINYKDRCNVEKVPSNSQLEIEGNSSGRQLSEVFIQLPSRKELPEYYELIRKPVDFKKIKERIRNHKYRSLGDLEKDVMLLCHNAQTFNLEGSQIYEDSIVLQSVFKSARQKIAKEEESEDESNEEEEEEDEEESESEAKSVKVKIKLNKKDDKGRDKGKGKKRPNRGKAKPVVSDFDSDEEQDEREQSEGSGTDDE

[3] = target: T2, von Hippel-Lindau disease tumor suppressor/SWI/SNF-related matrix-associated actin-dependent regulator of chromatin subfamily A member 2; experiment: PROTAC activity at VHL/SMARCA2 in human SW1573 cells assessed as induction of SMARCA2 degradation by measuring maximal efficacy incubated for 20 hrs by Western blotting analysis relative to control; assay type: cell-based
Target sequence in this assay (P40337 whole entry, looked up): as the sequence (P40337 whole entry, looked up) above
Target sequence in this assay (P51531 whole entry, looked up): as the sequence (P51531 whole entry, looked up) above

[4] = tested on: A549; experiment: Antiproliferative activity against SMARCA4-deficient human A549 cells assessed as cell growth inhibition measured after 7 days by WST-8 assay; assay type: functional; conditions: A549, 168 h, time 7 day
[5] = target: T2, von Hippel-Lindau disease tumor suppressor/SWI/SNF-related matrix-associated actin-dependent regulator of chromatin subfamily A member 2; experiment: PROTAC activity at VHL/C-terminal HiBiT fused SMARCA2 in human HeLa cells assessed as induction of SMARCA2 degradation incubated for 24 hrs by Nano-Glo HiBiT analysis; assay type: cell-based
[6] = target: T1, von Hippel-Lindau disease tumor suppressor/SWI/SNF-related matrix-associated actin-dependent regulator of chromatin subfamily A member 4; experiment: PROTAC activity at VHL/C-terminal HiBiT fused SMARCA4 in human HeLa cells assessed as induction of SMARCA4 degradation by measuring maximal efficacy incubated for 24 hrs by Nano-Glo HiBiT analysis relative to control; assay type: cell-based
Target sequence in this assay (P40337 whole entry, looked up): as the sequence (P40337 whole entry, looked up) above
Target sequence in this assay (P51532 whole entry, looked up): as the sequence (P51532 whole entry, looked up) above

[7] = tested on: NCI-H838; experiment: Antiproliferative activity against SMARCA4-deficient human NCI-H838 cells assessed as cell growth inhibition measured after 7 days by WST-8 assay; assay type: functional; conditions: NCI-H838, 168 h, time 7 day
[8] = tested on: SK-MEL-5; experiment: Antiproliferative activity against SMARCA4-deficient human SK-MEL-5 cells assessed as cell growth inhibition by measuring maximal efficacy measured after 7 days by WST-8 assay relative to control; assay type: functional; conditions: time 7 day
[9] = tested on: NCI-H1299; experiment: Antiproliferative activity against SMARCA4-deficient human NCI-H1299 cells assessed as cell growth inhibition measured after 7 days by WST-8 assay; assay type: functional; conditions: NCI-H1299, 168 h, time 7 day
[10] = target: T1, von Hippel-Lindau disease tumor suppressor/SWI/SNF-related matrix-associated actin-dependent regulator of chromatin subfamily A member 4; experiment: PROTAC activity at VHL/C-terminal HiBiT fused SMARCA4 in human HeLa cells assessed as induction of SMARCA4 degradation incubated for 24 hrs by Nano-Glo HiBiT analysis; assay type: cell-based
[11] = target: T1, von Hippel-Lindau disease tumor suppressor/SWI/SNF-related matrix-associated actin-dependent regulator of chromatin subfamily A member 4; experiment: PROTAC activity at VHL/C-terminal HiBiT fused SMARCA4 in human HeLa cells assessed as induction of SMARCA4 degradation at 0.00001 to 1 uM by Nano-Glo HiBiT analysis; assay type: cell-based; conditions: dose lower 1e-05 µM, dose upper 1.0 µM, time 6-48 hrs, TDE = time-dependent effect
Target sequence in this assay (P40337 whole entry, looked up): as the sequence (P40337 whole entry, looked up) above
Target sequence in this assay (P51532 whole entry, looked up): as the sequence (P51532 whole entry, looked up) above

[12] = target: T1, von Hippel-Lindau disease tumor suppressor/SWI/SNF-related matrix-associated actin-dependent regulator of chromatin subfamily A member 4; experiment: PROTAC activity at VHL/SMARCA4 in human SW1573 cells assessed as induction of […] degradation by measuring maximal efficacy incubated for 20 hrs by Western blotting analysis relative to control; assay type: cell-based
Target sequence in this assay (P40337 whole entry, looked up): as the sequence (P40337 whole entry, looked up) above
Target sequence in this assay (P51532 whole entry, looked up): as the sequence (P51532 whole entry, looked up) above

[13] = tested on: NCI-H1693; experiment: Antiproliferative activity against SMARCA4-deficient human NCI-H1693 cells assessed as cell growth inhibition by measuring maximal efficacy measured after 7 days by WST-8 assay relative to control; assay type: functional; conditions: time 7 day
[14] = target: T1, von Hippel-Lindau disease tumor suppressor/SWI/SNF-related matrix-associated actin-dependent regulator of chromatin subfamily A member 4; experiment: PROTAC activity at VHL/C-terminal HiBiT fused SMARCA4 in human HeLa cells assessed as induction of SMARCA4 degradation incubated for 6 to 48 hrs by Nano-Glo HiBiT analysis; assay type: cell-based; conditions: dose lower 1e-05 µM, dose upper 1.0 µM, time 6-48 hrs
Target sequence in this assay (P40337 whole entry, looked up): as the sequence (P40337 whole entry, looked up) above
Target sequence in this assay (P51532 whole entry, looked up): as the sequence (P51532 whole entry, looked up) above

[15] = tested on: NCI-H1793; experiment: Antiproliferative activity against SMARCA4-deficient human NCI-H1793 cells assessed as cell growth inhibition measured after 7 days by WST-8 assay; assay type: functional; conditions: NCI-H1793, 168 h, time 7 day
[16] = tested on: SK-MEL-28; experiment: Antiproliferative activity against human SK-MEL-28 cells expressing wild-type SMARCA2 assessed as cell growth inhibition measured after 7 days by WST-8 assay; assay type: functional; conditions: SK-MEL-28, 168 h, time 7 day
[17] = tested on: NCI-H1944; experiment: Antiproliferative activity against SMARCA4-deficient human NCI-H1944 cells assessed as cell growth inhibition by measuring maximal efficacy measured after 7 days by WST-8 assay relative to control; assay type: functional; conditions: time 7 day
[18] = Antiproliferative activity against SMARCA4-deficient human NCI-H1568 cells assessed as cell growth inhibition measured after 7 days by WST-8 assay; assay type: functional; conditions: NCI-H1568, 168 h, time 7 day
[19] = tested on: SK-MEL-28; experiment: Antiproliferative activity against human SK-MEL-28 cells expressing wild-type SMARCA2 assessed as cell growth inhibition by measuring maximal efficacy measured after 7 days by WST-8 assay relative to control; assay type: functional; conditions: time 7 day
[20] = tested on: NCI-H1975; experiment: Antiproliferative activity against human NCI-H1975 cells expressing wild-type SMARCA2 assessed as cell growth inhibition measured after 7 days by WST-8 assay; assay type: functional; conditions: NCI-H1975, 168 h, time 7 day
[21] = tested on: NCI-H1793; experiment: Antiproliferative activity against SMARCA4-deficient human NCI-H1793 cells assessed as cell growth inhibition by measuring maximal efficacy measured after 7 days by WST-8 assay relative to control; assay type: functional; conditions: time 7 day
[22] = tested on: NCI-H1975; experiment: Antiproliferative activity against human NCI-H1975 cells expressing wild-type SMARCA2 assessed as cell growth inhibition by measuring maximal efficacy measured after 7 days by WST-8 assay relative to control; assay type: functional; conditions: time 7 day
[23] = target: T1, von Hippel-Lindau disease tumor suppressor/SWI/SNF-related matrix-associated actin-dependent regulator of chromatin subfamily A member 4; experiment: PROTAC activity at VHL/SMARCA4 in human SW1573 cells assessed as induction of […] degradation incubated for 20 hrs by Western blotting analysis; assay type: cell-based
[24] = tested on: A549; experiment: Antiproliferative activity against SMARCA4-deficient human A549 cells assessed as cell growth inhibition by measuring maximal efficacy measured after 7 days by WST-8 assay relative to control; assay type: functional; conditions: time 7 day
[25] = tested on: NCI-H1792; experiment: Antiproliferative activity against human NCI-H1792 cells expressing wild-type SMARCA2 assessed as cell growth inhibition by measuring maximal efficacy measured after 7 days by WST-8 assay relative to control; assay type: functional; conditions: time 7 day
[26] = target: T2, von Hippel-Lindau disease tumor suppressor/SWI/SNF-related matrix-associated actin-dependent regulator of chromatin subfamily A member 2; experiment: PROTAC activity at VHL/C-terminal HiBiT fused SMARCA2 in human HeLa cells assessed as induction of SMARCA2 degradation at 0.000001 to 1 uM by Nano-Glo HiBiT analysis; assay type: cell-based; conditions: dose lower 1e-06 µM, dose upper 1.0 µM, time 6-48 hrs, TDE = time-dependent effect
Target sequence in this assay (P40337 whole entry, looked up): as the sequence (P40337 whole entry, looked up) above
Target sequence in this assay (P51531 whole entry, looked up): as the sequence (P51531 whole entry, looked up) above

[27] = target: T2, von Hippel-Lindau disease tumor suppressor/SWI/SNF-related matrix-associated actin-dependent regulator of chromatin subfamily A member 2; experiment: PROTAC activity at VHL/SMARCA2 in human SW1573 cells assessed as induction of SMARCA2 degradation incubated for 20 hrs by Western blotting analysis; assay type: cell-based
[28] = tested on: NCI-H1299; experiment: Antiproliferative activity against SMARCA4-deficient human NCI-H1299 cells assessed as cell growth inhibition by measuring maximal efficacy measured after 7 days by WST-8 assay relative to control; assay type: functional; conditions: time 7 day
[29] = target: T2, von Hippel-Lindau disease tumor suppressor/SWI/SNF-related matrix-associated actin-dependent regulator of chromatin subfamily A member 2; experiment: PROTAC activity at VHL/C-terminal HiBiT fused SMARCA2 in human HeLa cells assessed as induction of SMARCA2 degradation by measuring maximal efficacy incubated for 24 hrs by Nano-Glo HiBiT analysis relative to control; assay type: cell-based
Target sequence in this assay (P40337 whole entry, looked up): as the sequence (P40337 whole entry, looked up) above
Target sequence in this assay (P51531 whole entry, looked up): as the sequence (P51531 whole entry, looked up) above

[30] = tested on: SK-MEL-5; experiment: Antiproliferative activity against SMARCA4-deficient human SK-MEL-5 cells assessed as cell growth inhibition measured after 7 days by WST-8 assay; assay type: functional; conditions: SK-MEL-5, 168 h, time 7 day
[31] = tested on: NCI-H647; experiment: Antiproliferative activity against human NCI-H647 cells expressing wild-type SMARCA2 assessed as cell growth inhibition by measuring maximal efficacy measured after 7 days by WST-8 assay relative to control; assay type: functional; conditions: time 7 day
[32] = Antiproliferative activity against SMARCA4-deficient human NCI-H1568 cells assessed as cell growth inhibition by measuring maximal efficacy measured after 7 days by WST-8 assay relative to control; assay type: functional; conditions: time 7 day
[33] = target: T2, von Hippel-Lindau disease tumor suppressor/SWI/SNF-related matrix-associated actin-dependent regulator of chromatin subfamily A member 2; experiment: PROTAC activity at VHL/C-terminal HiBiT fused SMARCA2 in human HeLa cells assessed as induction of SMARCA2 degradation incubated for 6 to 48 hrs by Nano-Glo HiBiT analysis; assay type: cell-based; conditions: dose lower 1e-06 µM, dose upper 1.0 µM, time 6-48 hrs
Target sequence in this assay (P40337 whole entry, looked up): as the sequence (P40337 whole entry, looked up) above
Target sequence in this assay (P51531 whole entry, looked up): as the sequence (P51531 whole entry, looked up) above

[34] = tested on: NCI-H1693; experiment: Antiproliferative activity against SMARCA4-deficient human NCI-H1693 cells assessed as cell growth inhibition measured after 7 days by WST-8 assay; assay type: functional; conditions: NCI-H1693, 168 h, time 7 day
[35] = tested on: NCI-H1792; experiment: Antiproliferative activity against human NCI-H1792 cells expressing wild-type SMARCA2 assessed as cell growth inhibition measured after 7 days by WST-8 assay; assay type: functional; conditions: NCI-H1792, 168 h, time 7 day
[36] = tested on: NCI-H1944; experiment: Antiproliferative activity against SMARCA4-deficient human NCI-H1944 cells assessed as cell growth inhibition measured after 7 days by WST-8 assay; assay type: functional; conditions: NCI-H1944, 168 h, time 7 day
[37] = tested on: NCI-H647; experiment: Antiproliferative activity against human NCI-H647 cells expressing wild-type SMARCA2 assessed as cell growth inhibition measured after 7 days by WST-8 assay; assay type: functional; conditions: NCI-H647, 168 h, time 7 day
[38] = tested on: NCI-H838; experiment: Antiproliferative activity against SMARCA4-deficient human NCI-H838 cells assessed as cell growth inhibition by measuring maximal efficacy measured after 7 days by WST-8 assay relative to control; assay type: functional; conditions: time 7 day

- Emax [1]: > 95%
- Emax [2]: > 95%
Structure (SMILES): Cc1ncsc1-c1ccc(CNC(=O)[C@@H]2C[C@@H](O)CN2C(=O)[C@@H](NC(=O)C2(F)CC2)C(C)(C)C)c(OCCOc2ccc(CN3CCN(c4cc(-c5ccccc5O)nnc4N)CC3)cc2)c1

- Emax [3]: 96%
- GI50 [4]: 3.3 nM
- DC50 [5]: 0.12 nM
- Emax [6]: 98%
- GI50 [7]: 5 nM
- GI50 [9]: 31 nM
- DC50 [10]: 2 nM
- Activity [11]: Tde
- Emax [12]: 92%
- Activity [14]: Dose-Dependent Effect
- GI50 [15]: 1 nM
- GI50 [16]: 8.1 nM
- GI50 [20]: 18 nM
- DC50 [23]: 1.1 nM
- Activity [26]: Tde
- DC50 [27]: 0.039 nM
- Emax [29]: 96%
- GI50 [30]: 0.4 nM
- Activity [33]: Dose-Dependent Effect
- GI50 [34]: 0.2 nM
- GI50 [35]: 17 nM
- GI50 [36]: 0.9 nM
- GI50 [37]: 8.1 nM
Structure (SMILES): Cc1ncsc1-c1ccc([C@H](C)NC(=O)[C@@H]2C[C@@H](O)CN2C(=O)[C@@H](c2cc(N3CCC(CN4CCC(O[C@H]5C[C@H](Oc6cccc(CN7C8CCC7CN(c7cc(-c9ccccc9O)nnc7N)C8)c6)C5)CC4)CC3)no2)C(C)C)cc1
- Imax [8]: 96%
- Imax [13]: 82%
- Imax [17]: 87%
- GI50 [18]: 0.3 nM
- Imax [19]: 92%
- Imax [21]: 67%
- Imax [22]: 50%
- Imax [24]: 52%
- Imax [25]: 69%
- Imax [28]: 68%
- Imax [31]: 68%
- Imax [32]: 84%
- Imax [38]: 93%
